Experimental findings from patent publication US8846704B2, “Thiopyrimidine-based compounds and uses thereof” (YM Biosciences Austraila Pty Ltd, priority 2007, dated 2014) are described below.

Structures are written as SMILES.

The assay concerns the target T1, human JAK2 (Homo sapiens, UniProt O60674).
T1 construct: The kinase domain of human JAK2 was amplified; GST (N); made in house; host or cells: Sf9 insect cells (baculovirus)
In words: Alphascreen tyrosine kinase enzyme assay, JAK2 kinase domain. The format is biochemical. The conditions noted are these: read-out: JAK2 IC50_nM. As to the method: For screening purposes, compounds (in 100% DMSO) were warmed at 37 degrees for at least 20 minutes before use. A […] stock was initially made in assay buffer, where the final concentration of DMSO was 0.3%. The stocks were then diluted in 384 well Optiplates (Packard) where the final concentration of the compound was […].
The kinase domain of human JAK2 was amplified from U937mRNA using the polymerase chain reaction with the following primers: […]
The JAK2 PCR products were cloned into the pDest20 destination vector (Gibco). The JAK2 plasmid was then transformed into competent DH10Bac cells (Gibco), and the recombinant baculovirus was prepared via Sf9 insect cell transfection.
Baculovirus preparations from each of the constructs were infected into either one or five liters of Sf9 cells (Invitrogen) grown in SF-900 medium (Invitrogen) to a cell density of approximately 1-2×10^6 cells/ml. Cells were infected with virus at a MOI of 0.8-3.0. Cells were harvested and lysed. Tyrosine kinase domains were purified by affinity chromatography on a glutathione-agarose column (Scientifix Pty. Ltd. catalog #: GSH-200).
Kinase assays were performed in 384 well Optiplates (Packard) using an Alphascreen Protein Tyrosine Kinase PY100 detection kit The compounds were pre-incubated with affinity purified PTK domain in the presence of phosphotyrosine assay buffer (10 mM HEPES, pH 7.5, 100 mM MgCl2, 25 mM NaCl, […] and 0.1% Tween 20) for 20 minutes. The compounds were then incubated with substrate in the presence of ATP. The substrate used was susbtrate-1 with the sequence biotin-EGPWLEEEEEAYGWMDF-NH2 [SEQ. ID. NO. 13] (final concentration […]). For HCK 80 μm ATP was used and incubated for 60 minutes. Alphascreen phosphotyrosine acceptor beads followed by streptavidin donor beads at a concentration of 1/100 in stop buffer were added to each well under subdued light and incubated for 2-3 hours., The Alphascreen plates were read on a Packard Fusion Alpha instrument.

T1 sequence (O60674 849-1124 limits assumed): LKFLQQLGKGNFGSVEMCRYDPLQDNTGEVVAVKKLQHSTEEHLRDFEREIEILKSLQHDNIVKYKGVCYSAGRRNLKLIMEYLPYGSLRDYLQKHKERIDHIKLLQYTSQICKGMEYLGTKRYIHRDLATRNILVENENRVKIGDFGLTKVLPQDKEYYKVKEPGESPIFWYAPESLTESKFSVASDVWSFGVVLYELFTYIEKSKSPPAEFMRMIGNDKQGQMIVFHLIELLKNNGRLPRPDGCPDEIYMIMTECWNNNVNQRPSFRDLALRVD

For `C=CC(=O)Nc1ccc(Sc2nc(Nc3ccc(NS(C)(=O)=O)c(OC)c3)ncc2C)cc1` [Compound 296, N-(4-(2-(3-methoxy-4-(methylsulfonamido)phenylao)-5-methylpyrimidin-4-ylthio)phenyl)acrylamide], the IC50 is over 1000 nM.

Consider `OCc1ccc(Sc2ccnc(Nc3ccc(N4CCOCC4)cc3)n2)cc1` [Compound 67, (4-(2-(4-morpholinophenylao)pyrimidin-4-ylthio)phenyl)methanol], for which the IC50 was under 500 nM.

Turning to `C=CC(=O)Nc1ccc(Sc2nc(Nc3ccc(N4CCOCC4)cc3)ncc2C)cc1CC` [Compound 260, N-(2-ethyl-4-(5-methyl-2-(4-morpholinophenylao)pyrimidin-4-ylthio)phenyl)acrylamide], the IC50 is over 1000 nM.

`Cc1cnc(Nc2cccc(N3CCN(C)CC3)c2)nc1Sc1ccc(N)cc1` [Compound 245, 4-(4-aophenylthio)-5-methyl-N-(3-(4-methylpiperazin-1-yl)phenyl)pyrimidin-2-ae]: the IC50 was under 500 nM.

With `C=CC(=O)Nc1ccc(Sc2nc(Nc3cccc(N4CCOCC4)c3)ncc2I)cc1` [Compound 269, N-(4-(5-iodo-2-(3-morpholinophenylao)pyrimidin-4-ylthio)phenyl)acrylamide], the IC50 is over 1000 nM.

In the case of `Nc1ccc(Sc2nc(Nc3cccc(N4CCOCC4)c3)ncc2I)cc1` [Compound 264, 4-(4-aophenylthio)-5-iodo-N-(3-morpholinophenyl)pyrimidin-2-ae], the IC50 was over 1000 nM.

For the compound `C=CC(=O)Nc1ccc(Sc2nc(Nc3ccc(N4CCOCC4)cc3)ncc2F)cc1` [Compound 268, N-(4-(5-fluoro-2-(4-morpholinophenylao)pyrimidin-4-ylthio)phenyl)acrylamide], the IC50 is over 1000 nM.

On to `CC#CC(=O)Nc1cccc(Sc2ccnc(Nc3cccc(N4CCOCC4)c3)n2)c1` [Compound 232, N-(3-(2-(3-morpholinophenylao)pyrimidin-4-ylthio)phenyl)but-2-ynamide], for which the IC50 was over 1000 nM.

`C=CC(=O)Nc1ccc(Sc2nc(Nc3ccc(N4CCOCC4)cc3)ncc2Br)cc1` [Compound 306, N-(4-(5-bromo-2-(4-morpholinophenylao)pyrimidin-4-ylthio)phenyl)acrylamide]: the IC50 was over 1000 nM.

For the compound `NCc1cccc(Sc2ccnc(Nc3ccc(N4CCOCC4)cc3)n2)c1` [Compound 75, 4-(3-(aomethyl)phenylthio)-N-(4-morpholinophenyl)pyrimidin-2-ae], the IC50 was under 1000 nM.

Turning to `Cc1cc(Sc2nc(Nc3ccc(N4CCOCC4)cc3)ncc2C)ccc1N` [Compound 255, 4-(4-ao-3-methylphenylthio)-5-methyl-N-(4-morpholinophenyl)pyrimidin-2-ae], the IC50 was under 1000 nM.

With `C=CC(=O)Nc1ccc(Sc2nc(Nc3ccc(N4CCOCC4)nc3)ncc2C)cc1` [Compound 254, N-(4-(5-methyl-2-(6-morpholinopyridin-3-ylao)pyrimidin-4-ylthio)phenyl)acrylamide], the IC50 is over 1000 nM.

As to `Nc1ccc(Sc2nc(Nc3ccc(N4CCOCC4)cc3)ncc2F)cc1` [Compound 263, 4-(4-aophenylthio)-5-fluoro-N-(4-morpholinophenyl)pyrimidin-2-ae], the IC50 was over 1000 nM.

On to `Cc1cnc(Nc2ccc(N3CCOCC3)cc2)nc1Sc1ccc(N)nc1` [Compound 262, 4-(6-aopyridin-3-ylthio)-5-methyl-N-(4-morpholinophenyl)pyrimidin-2-ae], for which the IC50 is under 500 nM.

Turning to `Cc1cnc(Nc2ccc(N3CCOCC3)cc2)nc1Sc1ccc(NC(=O)CSCC(=O)O)cc1` [Compound 230, 2-(2-(4-(5-methyl-2-(4-morpholinophenylao)pyrimidin-4-ylthio)phenylao)-2-oxoethylthio)acetic acid], the IC50 is under 500 nM.

In the case of `N#CCNCc1cccc(Sc2ccnc(Nc3ccc(N4CCOCC4)cc3)n2)c1` [Compound 68, 2-(3-(2-(4-morpholinophenylao)pyrimidin-4-ylthio)benzylao)acetonitrile], the IC50 was under 100 nM.

Turning to `C=CC(=O)Nc1ccc(Sc2ccnc(Nc3cccc(O)c3)n2)cc1` [Compound 277, N-(4-(2-(3-hydroxyphenylao)pyrimidin-4-ylthio)phenyl)acrylamide], the IC50 is over 1000 nM.

For the compound `O=C(/C=C\Cl)Nc1ccc(Sc2ccnc(Nc3ccc(N4CCOCC4)cc3)n2)cc1` [Compound 346, (Z)-3-chloro-N-(4-(2-(4-morpholinophenylao)pyrimidin-4-ylthio)phenyl)acrylamide], the IC50 is over 1000 nM.

For `Nc1ccc(Sc2ccnc(Nc3ccc(N4CCOCC4)cc3)n2)cc1` [Compound 27, 4-(4-aophenylthio)-N-(4-morpholinophenyl)pyrimidin-2-ae], the IC50 was under 500 nM.

For `CC#CC(=O)Nc1cccc(Nc2nccc(SC)n2)c1` [Compound 8, N-(3-(4-(methylthio)pyrimidin-2-ylao)phenyl)but-2-ynamide], the IC50 was over 1000 nM.

For the compound `C=CC(=O)Nc1ccc(Nc2nccc(SC)n2)cc1` [Compound 13, N-(4-(4-(methylthio)pyrimidin-2-ylao)phenyl)acrylamide], the IC50 is over 1000 nM.

On to `Cc1cnc(Nc2ccc(O)cc2)nc1Sc1ccc(NC(=O)CCl)cc1` [Compound 193, 2-chloro-N-(4-(2-(4-hydroxyphenylao)-5-methylpyrimidin-4-ylthio)phenyl)acetamide], for which the IC50 is over 1000 nM.

On to `C=CC(=O)Nc1ccc(Sc2nc(Nc3ccc(N4CCC(CO)CC4)cc3)ncc2Br)cc1` [Compound 253, N-(4-(5-bromo-2-(4-(4-(hydroxymethyl)piperidin-1-yl)phenylao)pyrimidin-4-ylthio)phenyl)acrylamide], for which the IC50 was over 1000 nM.

Consider `CCOC(=O)/C=C/C(=O)Nc1ccc(Sc2nc(Nc3ccc(N4CCOCC4)cc3)ncc2C)cc1` [Compound 385, (E)-ethyl 4-(4-(5-methyl-2-(4-morpholinophenylao)pyrimidin-4-ylthio)phenylao)-4-oxobut-2-enoate], for which the IC50 was over 1000 nM.

In the case of `Cc1cnc(Nc2ccc(N3CCOCC3)cc2)nc1Sc1ccc(NC(=O)/C=C\C(=O)O)cc1` [Compound 380, (Z)-4-(4-(5-methyl-2-(4-morpholinophenylao)pyrimidin-4-ylthio)phenylao)-4-oxobut-2-enoic acid], the IC50 was over 1000 nM.

As to `CNC(=O)/C=C\C(=O)Nc1ccc(Sc2nc(Nc3ccc(N4CCOCC4)cc3)ncc2C)cc1` [Compound 389, N1-methyl-N4-(4-(5-methyl-2-(4-morpholinophenylao)pyrimidin-4-ylthio)phenyl)maleamide], the IC50 was over 1000 nM.

As for `C=CC(=O)Nc1ccc(Sc2nc(Nc3ccc(C)c(Br)c3)ncc2C)cc1` [Compound 242, N-(4-(2-(3-bromo-4-methylphenylao)-5-methylpyrimidin-4-ylthio)phenyl)acrylamide], the IC50 was over 1000 nM.

Turning to `C=CC(=O)Nc1ccc(Sc2nc(Nc3ccc(N4CCN(C)CC4)c(OC)c3)ncc2C)cc1` [Compound 249, N-(4-(2-(3-methoxy-4-(4-methylpiperazin-1-yl)phenylao)-5-methylpyrimidin-4-ylthio)phenyl)acrylamide], the IC50 is over 1000 nM.

As to `C=CC(=O)Nc1ccc(Sc2nc(Nc3ccc(N4CCC(O)C4)cc3)ncc2C)cc1` (centres unmarked) [Compound 295, N-(4-(2-(4-(3-hydroxypyrrolidin-1-yl)phenylao)-5-methylpyrimidin-4-ylthio)phenyl)acrylamide], the IC50 is over 1000 nM.
